Source: patent US9029545B2, “Thienopyridine NOX2 inhibitors” (GlaxoSmithKline Intellectual Property Limited, priority 2009, dated 2015)

Molecular target: T1, NOX2 in differentiated HL60 cells (Homo sapiens, UniProt P04839)
T1 construct: Differentiation of HL-60 cells to granulocytes increases NOX2 expression; endogenous in cells; host or cells: HL60 cells differentiated to neutrophil-like cells with 1.3% DMSO and stimulated with PMA
T1 sequence (P04839 1-570): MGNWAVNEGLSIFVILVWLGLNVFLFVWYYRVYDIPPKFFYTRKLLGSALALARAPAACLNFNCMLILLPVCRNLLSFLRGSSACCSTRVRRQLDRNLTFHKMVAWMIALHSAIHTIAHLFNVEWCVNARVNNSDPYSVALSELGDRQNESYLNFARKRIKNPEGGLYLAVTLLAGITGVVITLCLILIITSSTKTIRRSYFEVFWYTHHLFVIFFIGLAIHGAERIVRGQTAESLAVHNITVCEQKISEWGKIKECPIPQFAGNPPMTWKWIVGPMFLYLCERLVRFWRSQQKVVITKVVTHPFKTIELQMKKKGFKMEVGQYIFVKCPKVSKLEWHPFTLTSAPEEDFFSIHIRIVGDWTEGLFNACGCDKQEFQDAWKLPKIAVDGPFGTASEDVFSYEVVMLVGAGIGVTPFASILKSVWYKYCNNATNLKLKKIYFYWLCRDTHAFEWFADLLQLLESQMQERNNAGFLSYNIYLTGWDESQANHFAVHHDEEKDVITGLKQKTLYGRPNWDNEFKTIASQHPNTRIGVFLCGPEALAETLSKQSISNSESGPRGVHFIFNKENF
T1 sequence (P13498 1-195 partner): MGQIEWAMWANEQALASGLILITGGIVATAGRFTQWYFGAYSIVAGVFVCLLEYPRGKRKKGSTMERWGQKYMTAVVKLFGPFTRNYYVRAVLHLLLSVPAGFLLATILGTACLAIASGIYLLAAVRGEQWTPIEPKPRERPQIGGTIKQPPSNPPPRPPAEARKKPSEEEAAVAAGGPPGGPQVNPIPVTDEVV
Experiment: HL60 cell-based assays (Assay 1 Oxyburst green BSA fluorescence, Assay 2 L-012 luminescence); result stated for at least one of them
Conditions: PMA-stimulated superoxide production in differentiated HL60 cells; at least one of Oxyburst and L012 assays; read-out: pIC50 in at least one of the HL60 assays (converted)
Experimental: In the cell-based assay, superoxide production by NOX2 was measured in differentiated HL60 cells, a human myelomonocytic leukemia cell line, using either Oxyburst (Assay1) or L012 (Assay2). Differentiation of HL-60 cells to granulocytes increases NOX2 expression. The phorbol 12-myristate 13-acetate (PMA) was used to stimulate the production of superoxide in HL60 cells by activating protein kinase C, which then activated the NADPH oxidase (NOX) enzymes. Inhibition of NOX2 enzyme was detected by the reversal of fluorescence signal (Assay1) or luminescence signal (Assay2). The control inhibitor used was diphenyleneiodonium chloride (DPI), a […] inhibitor capable of non-selectively inhibiting superoxide produced by NOX enzymes.
Assay 1: in this high-throughput screening assay, oxyburst green bovine serum albumin (BSA) was used to detect superoxide production in HL60 cells. Oxidation of Oxyburst green BSA by hydrogen peroxide as a result of the activation of NOX2 by PMA. Oxyburst green BSA fluorescence was measured at excitation 485 nm and emission 530 nm.
Assay 2: in this assay, a chemiluminescence probe, L-012 was used to detect superoxide production in HL60 cells. L-012 reacted with various types of reactive oxygen species generated by PMA-activated HL60 cells. Luminescence was measured using Tecan Infinite 500.
The HL60 cells were differentiated into neutrophil-like cells by adding 1.3% DMSO in the media for 3-7 days (Hua, J et al. (2000) Journal of Leukocyte Biology. 68:216-224). Iscove's Modified Dulbecco's Media (IMDM) with L-Glutamine and 25 mM HEPES buffer, Fetal Bovine Serum (FBS), Penicillin/Streptomycin, Oxyburst Green BSA, PBS, and HBSS buffer with Calcium Chloride and Magnesium Chloride were purchased from Invitrogen (Catalog #s: 12440-061, 10500-064, 15140-163, O-13291, 14190-250, and 14025-134 respectively). Phorbol 12-myristate 13-acetate (PMA), glucose, and CHAPS were purchased from Sigma (Catalog #s: 79346, D-9434, and C5070 respectively). Diphenyleneiodonium chloride (DPI) was purchased from Toronto Research Chemicals (Catalog #: D491500). L-012 was purchased from Wako Chemical (Catalog #: 120-04891). Dimethyl sulfoxide (DMSO) was purchased EMD Chemicals (VWR Catalog #: MX1456-1). Multidrop combi was purchased from Thermo Electron Corporation (Waltham, Mass., USA). Hummingbird nanoliter liquid dispenser was purchased from Genomics Solution (Ann Arbor, Mich., USA). 384 well low-volume plates and polypropylene 384 well clear plates were purchased from Greiner (Catalog #: 784076 and 781280 respectively). 96 well plate and 384 well plate black assay plates were purchased from Greiner (Catalog #: 655094 and 781098). 96 well plate for compound serial dilution was purchased from Corning (Catalog #: 9017). Acquest or Analyst fluorescence plate reader was purchased from LJL Biosystems/Molecular Devices (California, USA). Tecan Infinite 500 was purchased from Tecan (Switzerland).
Media for HL60 cells were kept at 4° C. for storage and were warmed to 37° C. in a water bath before use. The media components were IMDM media with 20% FBS and 1% Penicillin/Streptomycin.
Buffer to be used for compound addition and compound dilution consisted of HBSS buffer with 0.1% glucose.
Buffer to be used for cells consisted of HBSS buffer with 0.1% glucose and 0.01% CHAPS.
HL60 cells were thawed and resuspended in Cells media. The cells were centrifuged at 1200 rpm for 8 minutes. Media was aspirated and the cells were resuspended in Cells buffer. The cells were counted and resuspended to 1×10^6 cells/mL.
Full inhibition controls were dispensed using 100 nL/well of 1 mM DPI in DMSO to column 18 of a 384 well plate. Compounds were dispensed using 100 nL/well. Full activity controls were dispensed using 100 nL/well of 4 uM PMA in DMSO. Oxyburst Green BSA was added to cell solution at 10 ug/mL. Using the Multidrop, 10 uL cell solution was added to the entire assay plate. The assay plate was incubated at room temperature for 100 minutes. […]

| IC50 [µM] | Structure (SMILES) |
| --- | --- |
| < 100 | Cc1cc(NS(=O)(=O)c2cccc(Cl)c2)c2c(-c3ccc(Cl)c(Cl)c3)c(C)sc2n1 [Example 20, 3-Chloro-N-[3-(3,4-dichlorophenyl)-2,6-dimethylthieno[2,3-b]pyridin-4-yl]benzenesulfonamide] |
| < 100 | COc1cncc(-c2c(C)sc3nc(C)cc(NS(=O)(=O)c4cccc(Cl)c4)c23)c1 [Example 67, 3-Chloro-N-{2,6-dimethyl-3-[5-(methyloxy)-3-pyridinyl]thieno[2,3-b]pyridin-4-yl}benzenesulfonamide] |
